How the values were obtained:
human ACSS2 protein = biological target: T1, human ACSS2 protein (Homo sapiens, UniProt Q9NR19); experiment: ACSS2 cell-free activity assay (pyrophosphatase-coupled, Biomol green); conditions: 10 nM human ACSS2, 90 minutes at 37 C, absorbance at 620 nm; read-out: ACSS2 Biochemical IC50
T1 construct: purchased OriGene Technologies, Inc
In short: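 10 nM human ACSS2 incubated 90 min at 37 C with compound, 300 μM ATP, 10 μM CoA, 5 mM NaAc in pH 7.5 Hepes buffer with 0.5 U/ml pyrophosphatase. Released phosphate detected with Biomol Green at 620 nm; IC50 by non-linear regression constrained to 0% and 100%.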

human ACSS1 protein = biological target: T2, human ACSS1 protein (Homo sapiens, UniProt Q9NUB1); experiment: ACSS1 cell-free activity assay (pyrophosphatase-coupled, Biomol green); type: biochemical; conditions: 5 nM human ACSS1, 30 minutes at room temperature, absorbance at 620 nm; for IC50: read-out: ACSS1 Biochemical IC50
T2 construct: purchased MyBioSource
T2 sequence (Q9NUB1 38-689): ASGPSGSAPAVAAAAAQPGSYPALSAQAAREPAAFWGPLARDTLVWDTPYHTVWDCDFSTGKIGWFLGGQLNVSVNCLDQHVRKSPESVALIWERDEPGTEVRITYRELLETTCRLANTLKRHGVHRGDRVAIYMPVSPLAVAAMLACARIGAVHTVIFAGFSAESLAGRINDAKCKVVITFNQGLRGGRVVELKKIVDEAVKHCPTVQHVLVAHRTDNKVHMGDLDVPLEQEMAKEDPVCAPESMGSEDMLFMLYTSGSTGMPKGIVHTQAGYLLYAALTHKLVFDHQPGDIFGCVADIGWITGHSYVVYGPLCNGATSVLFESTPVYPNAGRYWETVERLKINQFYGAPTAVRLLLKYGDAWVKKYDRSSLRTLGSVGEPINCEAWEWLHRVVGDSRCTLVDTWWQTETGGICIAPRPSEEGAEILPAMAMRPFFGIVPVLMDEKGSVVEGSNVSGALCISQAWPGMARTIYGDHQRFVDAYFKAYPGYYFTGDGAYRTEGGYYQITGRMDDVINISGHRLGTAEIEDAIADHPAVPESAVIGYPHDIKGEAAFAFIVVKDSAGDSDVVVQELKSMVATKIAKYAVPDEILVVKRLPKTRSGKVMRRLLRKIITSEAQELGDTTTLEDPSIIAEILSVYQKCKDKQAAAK
In short: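 5 nM human ACSS1 incubated 30 min at RT with compound in pH 7.5 Hepes buffer with 15 μM CoA, 5 mM acetate, 300 μM ATP, 2 mM MgCl2 and pyrophosphatase. Released phosphate detected with Biomol Green (30 min), absorbance 620 nm. IC50 from constrained non-linear regression.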

[1] = biological target: T3, ACSS2 in MDA-MB-468 cells (Homo sapiens, UniProt Q9NR19); experiment: Cellular fatty-acid IC50: 13C-acetate incorporation into fatty acids (palmitate), LC-MS; type: cell-based; conditions: hypoxic conditions (1% O2), 75% charcoal stripped serum, 5 hours, 13C-acetate into palmitate, read-out: Cellular Fatty-acid IC50 High Serum MDA468
T3 construct: endogenous in cells; host or cells: MDA-MB-468 cells, hypoxia (1% O2)
In short: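 MDA-MB-468 cells under hypoxia (1% O2) treated 5 h with compound (0.000512-1000 nM) in medium with 75% charcoal-stripped serum and 0.5 mM 13C-acetate. 13C-palmitate quantified by LC-MS (negative ion, RSIM). IC50 from inhibition versus no-compound control, background-subtracted, constrained 0–100% nonlinear fit.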

T3 sequence (Q9NR19 whole entry): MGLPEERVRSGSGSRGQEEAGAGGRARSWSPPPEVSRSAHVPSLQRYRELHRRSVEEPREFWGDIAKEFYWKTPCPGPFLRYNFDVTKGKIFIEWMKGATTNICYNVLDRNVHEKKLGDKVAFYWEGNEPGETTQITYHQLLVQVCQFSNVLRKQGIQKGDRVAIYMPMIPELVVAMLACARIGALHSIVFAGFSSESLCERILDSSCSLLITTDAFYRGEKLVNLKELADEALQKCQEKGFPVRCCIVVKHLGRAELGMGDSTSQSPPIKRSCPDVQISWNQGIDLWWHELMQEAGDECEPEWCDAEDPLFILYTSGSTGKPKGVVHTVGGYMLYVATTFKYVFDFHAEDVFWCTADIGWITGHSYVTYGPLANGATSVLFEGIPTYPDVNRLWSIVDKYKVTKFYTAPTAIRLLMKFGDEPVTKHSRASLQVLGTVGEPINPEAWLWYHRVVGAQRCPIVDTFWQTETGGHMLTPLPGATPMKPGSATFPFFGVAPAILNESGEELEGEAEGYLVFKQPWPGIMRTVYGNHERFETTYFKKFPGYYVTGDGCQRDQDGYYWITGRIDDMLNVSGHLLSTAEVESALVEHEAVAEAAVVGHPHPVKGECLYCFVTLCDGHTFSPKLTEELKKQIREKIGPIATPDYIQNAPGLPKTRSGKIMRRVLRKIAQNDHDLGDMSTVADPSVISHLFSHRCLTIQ
T1 sequence (Q9NR19 whole entry): as above

Compound	IC50 (human ACSS2 protein)	IC50 (human ACSS1 protein)	IC50 [1]	ACSS1 Biochemical IC50 (nM) (human ACSS1 protein)
CNC(=O)c1cccc(NC(=O)c2c(C)[nH]c(-c3ccnc(-c4c(C)cccc4C)c3)[n+]2[O-])c1 [Compound 178, 2-(2-(2,6-dimethylphenyl)pyridin-4-yl)-5-methyl-4-((3-(methylcarbamoyl)phenyl)carbamoyl)-1H-imidazole 3-oxide]	< 1 nM	> 30 nM	< 20 nM	
CCC(F)(F)c1cccc(NC(=O)c2c(C)[nH]c(-c3cc(-c4c(C)cccc4C)c(OC)cn3)[n+]2[O-])c1 [Compound 157, 4-((3-(1,1-difluoropropyl)phenyl)carbamoyl)-2-(4-(2,6-dimethylphenyl)-5-methoxypyridin-2-yl)-5-methyl-1H-imidazole 3-oxide]	< 1 nM		> 50 nM	Inactive
CCC(F)(F)c1cccc(NC(=O)c2c(C)[nH]c(-c3ccc(C#N)c(-c4c(C)cccc4C)c3)[n+]2[O-])c1 [Compound 114, 2-(6-cyano-2′,6′-dimethyl-[1,1′-biphenyl]-3-yl)-4-((3-(1,1-difluoropropyl)phenyl)carbamoyl)-5-methyl-1H-imidazole 3-oxide]	< 1 nM	> 30 nM	< 20 nM	
CCC(F)(F)c1cccc(NC(=O)c2c(C)[nH]c(-c3cccc(-c4c(C)cnnc4C)c3)[n+]2[O-])c1 [Compound 116, 4-((3-(1,1-difluoropropyl)phenyl)carbamoyl)-2-(3-(3,5-dimethylpyridazin-4-yl)phenyl)-5-methyl-1H-imidazole 3-oxide]	< 1 nM		< 20 nM	Inactive
COc1ccc(-c2[nH]c(C)c(C(=O)Nc3cccc(C(F)(F)C4CC4)c3)[n+]2[O-])cc1-c1c(C)cncc1C [Compound 105, 4-((3-(cyclopropyldifluoromethyl)phenyl)carbamoyl)-2-(3-(3,5-dimethylpyridin-4-yl)-4-methoxyphenyl)-5-methyl-1H-imidazole 3-oxide]	< 1 nM		< 20 nM	Inactive

Now from value to molecule:

IC50 (human ACSS2 protein)	IC50 (human ACSS1 protein)	IC50 [1]	ACSS1 Biochemical IC50 (nM) (human ACSS1 protein)	Compound
< 1 nM	> 30 nM	< 20 nM		CNC(=O)c1cccc(NC(=O)c2c(C)[nH]c(-c3ccc(OC)c(-c4c(C)cc(F)cc4C)c3)[n+]2[O-])c1 [Compound 185, 2-(4′-fluoro-6-methoxy-2′,6′-dimethyl-[1,1′-biphenyl]-3-yl)-5-methyl-4-((3-(methylcarbamoyl)phenyl)carbamoyl)-1H-imidazole 3-oxide]
< 1 nM		< 20 nM	Inactive	CCC(F)(F)c1cccc(NC(=O)c2c(C)[nH]c(-c3cc(CCN(C)C)c(OC)c(-c4c(C)cccc4C)c3)[n+]2[O-])c1 [Compound 169, 4-((3-(1,1-difluoropropyl)phenyl)carbamoyl)-2-(5-(2-(dimethylamino)ethyl)-6-methoxy-2′,6′-dimethyl-[1,1′-biphenyl]-3-yl)-5-methyl-1H-imidazole 3-oxide]
< 1 nM	> 30 nM	< 20 nM		CCC(F)(F)c1cccc(NC(=O)c2c(C)[nH]c(-c3cccc(-c4nccnc4C)c3)[n+]2[O-])c1 [Compound 110, 4-((3-(1,1-difluoropropyl)phenyl)carbamoyl)-5-methyl-2-(3-(3-methylpyrazin-2-yl)phenyl)-1H-imidazole 3-oxide]

Reference: patent publication US20230174507A1, “IMIDAZOLE 3-OXIDE DERIVATIVE BASED ACSS2 INHIBITORS AND METHODS OF USE THEREOF” (METABOMED LTD., priority 2020, published 2023)
